Measured values published in patent US8071294B2, “Cancer therapy sensitizer” (Dana-Farber Cancer Institute, priority 2003, dated 2011).

Columns and labels:
MIP/5FU tumor xenografts = experiment: MIP/5FU tumor xenograft animal model; assay type: in vivo, NIH nude mice; settings: 5-FU alone (FIG. 18), n=6
Procedure: (§1) Concentrated SPARC-containing supernatant [SPARC(s)]—MIP/SP cells were plated at 1×10^6 cells in […] in DMEM (10% FBS, 1% penicillin/streptomycin, 0.1% Zeocin) for 24 hrs. Cells were subsequently washed with PBS twice and incubated in serum-free VP-SFM medium supplemented with glutamine 4 mM (Invitrogen) for 72 hrs. This medium was concentrated from 500 ml to 2 ml using Centricon Filter units (Millipore) at 4° C. All media collected and processed by this method were used for subsequent animal studies.
(§2) Animal Studies—Tumor xenograft animal models were used to assess the effect of SPARC on tumor progression in-vivo. NIH nude mice (6 weeks old, Taconic Laboratories) were engrafted following subcutaneous injection of 2×10^6 cells into the left flank. Treatment regimens were initiated once the average tumor size was 50-75 mm^3 in size. Tumor measurements were performed using a hand-held caliper (Fisher) twice weekly and weight measurements were made concurrently until the completion of the study. Chemotherapy was provided using a 3-week cycle regimen for a total of 6 cycles: 5-FU 25 mg/kg or CPT-11 25 mg/kg intraperitoneal injections three times on week 1 of each cycle, followed by 2 weeks of treatment-free periods. Dosing schedule for SPARC(s) was 100 μL of SPARC(s) three times per week until the completion of the chemotherapy cycle.

MIP/SP cells [1] = experiment: Quantitation of apoptosis by Annexin V labeling and flow cytometry, SPARC-overexpressing cells versus control; assay type: cell-based; settings: 12-hr exposure, p<0.05
Procedure: (§3) Quantitation of Apoptosis—For the TUNEL assay, cells were plated onto glass coverslips in 6-well plates at 250,000 cells/plate overnight prior to any induction study 24 hours later. For the assessment of apoptosis following exogenous SPARC (Haematologic Technologies Inc), cells were incubated with SPARC 5 μg/ml for 24 hrs followed by a 12-hr exposure to 5-FU 1000 μM. Cells were then processed for labeling by Apoptosis Detection Kit (Promega) according to the manufacturer's instructions. For quantitation of apoptosis, cells were plated at 250,000 cells/plate in 6-well plates overnight, followed by 12-hr incubation with the following chemotherapy agents: 5-FU 1000 μM, CPT-11 200 μM, cisplatin 100p4, and etoposide 10 μM. Cells were collected by using a nonenzymatic cell dissociation medium (Sigma), washed with phosphate-buffered saline and subsequently stained for Annexin V and propidium iodide using an Apoptosis detection kit (R & D Research) according to the manufacturer's protocol. The proportion of cells labeled with Annexin V and propidium iodide was analyzed by XL Flow Cytometry Analyzer. Data was collected from 100,000 events.
(§4) Transfection and Selection of Clone—The SPARC cDNA was cloned into pcDNA3.1 expression vector. Transfections were performed with 2.0 μg of the gene/expression vector construct using the polyethylenimine method of Boussiff et al. (1995) with minor modifications (Tai et al., 2002). After transfection, cells were washed with phosphate-buffered saline (PBS, pH 7.4) and maintained in culture medium for 24 hours, followed by a change to an appropriate selection medium containing 1% Zeocin. Cells were selected based on Zeocin resistance and individual colonies and clones from these colonies were then propagated for further verification. Stably transduced clones (MIP/SP) were screened for SPARC mRNA expression by reverse-transcription polymerase chain reaction (RT-PCR) analysis. MIP/SP clones with the highest expression of SPARC mRNA (by RT-PCR) and protein (by Western blot) were selected for subsequent in-vitro and in-vivo studies. Control cell lines used for this study included MIP101 cells stably transduced with pcDNA3.1 empty vector only (MLP/Zeo) and selected based on Zeocin resistance.

[2] = tested on: MIP101 cells resistant to 5-FU (MIP-5FUR, MIP/5FU); experiment: TUNEL assay of apoptosis in 5-FU resistant MIP101 cells; assay type: cell-based
Procedure: (§5) Cell Culture—The colorectal cell line MIP-101 was maintained in Dulbecco's modified Eagle's medium (DMEM) (Invitrogen) supplemented with 10% fetal bovine serum (FBS) (Invitrogen), 1% penicillin/streptomycin (Invitrogen) at 37° C. and 5% CO2. Resistant MIP101 cells were developed following long-term incubation with incremental concentrations of 5-fluorouracil (5-FU), irinotecan (CPT-11), cisplatin (CIS), and etoposide (ETO). Stable MIP101 cells transduced with SPARC (MIP/SP) were maintained in DMEM supplemented with 10% FBS, 1% penicillin/streptomycin, and 0.1% Zeocin at 37° C. and 5% CO2.
as §3, with “For the assessment of apoptosis following exogenous SPARC (Haematologic Technologies Inc), cells were incubated with SPARC 5 μg/ml for 24 hrs followed by a 12-hr exposure to 5-FU 1000 μM.” left out

MIP101 tumor xenografts = experiment: MIP101 tumor xenograft animal model; assay type: in vivo, NIH nude mice; settings: 5-FU alone, n=6
Procedure: as §1, §2

MIP/SP cells [3] = experiment: Colony forming (clonogenic) assay, SPARC-overexpressing cells versus control; assay type: cell-based; settings: increasing concentrations of chemotherapy (FIG. 21B)
Procedure: as §4, with “resistance. Colony forming Assay—For clonogenic cell survival studies, MIP101 parental cells and MIP/SP cells were plated at 1,000 cells/plate in 48-well plates and incubated with increasing concentrations of 5-FU (0, 10 μM, 100 μM, 1000 μM), CPT-11 (0, 1 μM, 10 μM, 100 μM), or etoposide (0, 10 μM, 100 μM, 1000 μM) for 4 days. Cells were then washed with PBS and incubated in fresh medium containing the appropriate concentrations of chemotherapy for an additional 7 days. Each well was stained with crystal violet and the colonies with more than 50 cells were counted. The number of colonies formed in the treated group was calculated based on the colonies formed from the control, untreated cells.” for “resistance.”

parental MIP101 cells = experiment: TUNEL assay of apoptosis in parental MIP101 cells; assay type: cell-based
Procedure: as §5
as §3, with “For the assessment of apoptosis following exogenous SPARC (Haematologic Technologies Inc), cells were incubated with SPARC 5 μg/ml for 24 hrs followed by a 12-hr exposure to 5-FU 1000 μM.” left out

MIP/SP tumor xenografts = experiment: Tumor xenografts of SPARC-overexpressing cells treated with chemotherapy; assay type: in vivo, NIH nude mice; settings: for rate of tumor regression, MIP/SP versus parental MIP101 xenografts: FIG. 14
Procedure: as §2

## O=c1[nH]cc(F)c(=O)[nH]1 [5-FU, 5-fluorouracil]
MIP/5FU tumor xenografts
  tumor growth: rapid tumor growth continued
MIP/SP cells [1]
  cells undergoing apoptosis, MIP/SP versus MIP/Zeo: Greater number
[2]; MIP-5FUR cells, 5-FU 500 uM
  apoptosis (TUNEL): could not be triggered to undergo apoptosis
[2]; resistant phenotype (MIP/5FU), 5-FU 1000 uM (FIG. 21A)
  apoptosis (TUNEL stain): lack of apoptosis
MIP101 tumor xenografts; by 42 days post-treatment (FIG. 17)
  complete tumor regression: not observed
MIP101 tumor xenografts; by 84 days post-treatment (FIG. 16)
  complete tumor regression: not observed
MIP/SP cells [3]
  cell colonies, MIP/SP versus MIP/Zeo: fewer cell colonies of MIP/SP cells
Parental MIP101 cells; parental sensitive MIP101 cells, 5-FU at a similar concentration (500 uM)
  apoptosis (TUNEL): a significant number of cells from the parental, sensitive cell line underwent apoptosis
Parental MIP101 cells; sensitive MIP101 cells, 5-FU 1000 uM (FIG. 21A)
  apoptosis (TUNEL stain): positively stained cells
MIP/SP tumor xenografts
  rate of tumor regression, MIP/SP versus parental MIP101 xenografts: more rapid rate of tumor regression
MIP/SP tumor xenografts; representative animals, 2 cycles of 5-FU, by 23 days post-transplant
  remission of MIP-SPARC xenograft: complete remission

## CCc1c2c(nc3ccc(OC(=O)N4CCC(N5CCCCC5)CC4)cc13)-c1cc3c(c(=O)n1C2)COC(=O)[C@]3(O)CC [CPT-11, irinotecan]
MIP/SP cells [1]
  cells undergoing apoptosis, MIP/SP versus MIP/Zeo: Greater number
MIP/SP cells [3]
  cell colonies, MIP/SP versus MIP/Zeo: fewer cell colonies of MIP/SP cells
MIP/SP tumor xenografts
  rate of tumor regression, MIP/SP versus parental MIP101 xenografts: more rapid rate of tumor regression
MIP/SP tumor xenografts; representative animals, 2 cycles of CPT-11
  tumor size versus parental MIP101 xenograft: significantly smaller tumors

## N.N.[Cl][Pt][Cl] [cisplatin]
MIP/SP cells [1]
  cells undergoing apoptosis, MIP/SP versus MIP/Zeo: Greater number

## COc1cc([C@@H]2c3cc4c(cc3[C@@H](O[C@@H]3O[C@@H]5CO[C@@H](C)O[C@H]5[C@H](O)[C@H]3O)[C@H]3COC(=O)[C@H]23)OCO4)cc(OC)c1O [etoposide]
MIP/SP cells [1]
  cells undergoing apoptosis, MIP/SP versus MIP/Zeo: Greater number
MIP/SP cells [3]
  cell colonies, MIP/SP versus MIP/Zeo: fewer cell colonies of MIP/SP cells

B1: SPARC: Secreted protein acidic and rich in cystein; exogenous SPARC polypeptide (Haematologic Technologies Inc) (protein, UniProt P09486 18-303, looked up)
SPARC: APQQEALPDETEVVEETVAEVTEVSVGANPVQVEVGEFDDGAEETEEEVVAENPCQNHHCKHGKVCELDENNTPMCVCQDPTSCPAPIGEFEKVCSNDNKTFDSSCHFFATKCTLEGTKKGHKLHLDYIGPCKYIPPCLDSELTEFPLRMRDWLKNVLVTLYERDEDNNLLTEKQKLRVKKIHENEKRLEAGDHPVELLARDFEKNYNMYIFPVHWQFGQLDQHPIDGYLSHTELAPLRAPLIPMEHCTTRFFETCDLDNDKYIALDEWAGCFGIKQKDIDKDLVI
[2]; MIP/5FU cells, 24 hr SPARC 5 ug/ml, then 5-FU 1000 uM (FIG. 21A)
  sensitivity to 5-FU (TUNEL-positive cells): once again became sensitive to 5-FU
[2]; resistant cells, exogenous SPARC alone without chemotherapy
  apoptosis (TUNEL), SPARC alone: did not induce apoptosis
[2]; resistant clones, SPARC 24-hr incubation followed by 12-hr exposure to a chemotherapeutic agent
  reversal of resistant phenotype (apoptotic cells by TUNEL): sufficient in reversing the resistant phenotype
Parental MIP101 cells; parental MIP 101 cells, exogenous SPARC alone without chemotherapy
  apoptosis (TUNEL), SPARC alone: did not induce apoptosis
